From ChEMBL document CHEMBL1133093, “The PPARs: from orphan receptors to drug discovery” (J Med Chem, 2000)

Legend:
[1] = target: T1, Peroxisome proliferator-activated receptor alpha (Mus musculus, UniProt P23204); type: functional
T1 sequence (P23204 whole entry): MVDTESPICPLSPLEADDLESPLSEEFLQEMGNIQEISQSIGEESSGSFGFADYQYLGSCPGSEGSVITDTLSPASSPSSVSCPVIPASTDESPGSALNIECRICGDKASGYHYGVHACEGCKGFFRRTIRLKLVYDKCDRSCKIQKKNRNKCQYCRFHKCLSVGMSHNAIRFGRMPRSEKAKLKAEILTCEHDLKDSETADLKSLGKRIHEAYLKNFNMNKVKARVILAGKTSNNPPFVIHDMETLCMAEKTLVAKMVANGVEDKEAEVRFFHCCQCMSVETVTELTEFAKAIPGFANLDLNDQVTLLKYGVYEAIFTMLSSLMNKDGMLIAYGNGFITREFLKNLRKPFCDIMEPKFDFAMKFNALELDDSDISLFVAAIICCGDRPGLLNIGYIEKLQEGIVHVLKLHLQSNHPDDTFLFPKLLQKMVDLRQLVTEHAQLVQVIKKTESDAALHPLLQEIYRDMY

[2] = target: T2, Peroxisome proliferator-activated receptor delta (Homo sapiens, UniProt Q03181)
T2 sequence (Q03181 whole entry): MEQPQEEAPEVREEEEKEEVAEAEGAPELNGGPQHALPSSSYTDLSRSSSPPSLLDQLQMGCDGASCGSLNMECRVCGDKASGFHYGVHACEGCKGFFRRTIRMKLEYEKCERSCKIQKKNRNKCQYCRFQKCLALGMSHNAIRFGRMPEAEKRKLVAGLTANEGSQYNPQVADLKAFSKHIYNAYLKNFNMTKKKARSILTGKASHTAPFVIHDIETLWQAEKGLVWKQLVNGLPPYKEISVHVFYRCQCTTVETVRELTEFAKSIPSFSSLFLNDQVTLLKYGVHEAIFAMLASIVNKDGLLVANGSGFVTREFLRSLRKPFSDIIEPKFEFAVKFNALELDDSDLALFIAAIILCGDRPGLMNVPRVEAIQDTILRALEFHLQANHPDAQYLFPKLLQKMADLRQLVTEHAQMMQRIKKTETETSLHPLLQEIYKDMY

[3] = target: T3, Peroxisome proliferator-activated receptor delta (Mus musculus, UniProt P35396); assay: Agonist activity for murine PPAR delta receptor in transcriptional activation assay; type: functional
T3 sequence (P35396 whole entry): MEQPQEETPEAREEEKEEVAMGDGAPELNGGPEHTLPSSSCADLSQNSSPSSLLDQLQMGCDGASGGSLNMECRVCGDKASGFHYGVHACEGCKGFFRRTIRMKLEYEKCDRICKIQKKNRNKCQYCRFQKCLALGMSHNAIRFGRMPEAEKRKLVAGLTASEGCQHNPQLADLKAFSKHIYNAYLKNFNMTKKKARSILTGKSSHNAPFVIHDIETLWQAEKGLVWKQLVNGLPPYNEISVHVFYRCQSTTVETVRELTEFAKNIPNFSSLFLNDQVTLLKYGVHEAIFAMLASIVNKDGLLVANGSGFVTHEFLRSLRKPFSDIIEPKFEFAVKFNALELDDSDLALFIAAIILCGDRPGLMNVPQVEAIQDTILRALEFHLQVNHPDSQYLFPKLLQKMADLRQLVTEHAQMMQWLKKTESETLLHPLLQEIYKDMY

[4] = target: T4, Peroxisome proliferator-activated receptor gamma (Homo sapiens, UniProt P37231)
T4 sequence (P37231 whole entry): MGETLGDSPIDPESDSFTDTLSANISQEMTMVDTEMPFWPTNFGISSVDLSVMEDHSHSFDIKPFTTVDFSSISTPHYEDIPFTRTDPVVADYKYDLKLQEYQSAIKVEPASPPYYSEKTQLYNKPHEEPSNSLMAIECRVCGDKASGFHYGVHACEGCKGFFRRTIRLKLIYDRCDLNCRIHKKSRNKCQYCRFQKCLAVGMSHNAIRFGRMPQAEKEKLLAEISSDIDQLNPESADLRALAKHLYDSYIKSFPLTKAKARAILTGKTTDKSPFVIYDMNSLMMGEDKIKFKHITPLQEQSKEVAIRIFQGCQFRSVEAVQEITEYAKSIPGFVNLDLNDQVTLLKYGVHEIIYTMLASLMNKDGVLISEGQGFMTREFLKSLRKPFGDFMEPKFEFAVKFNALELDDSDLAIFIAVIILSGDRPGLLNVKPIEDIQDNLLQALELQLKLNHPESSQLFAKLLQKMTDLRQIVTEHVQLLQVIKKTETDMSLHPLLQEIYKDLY

[5] = target: T5, Peroxisome proliferator-activated receptor alpha (Homo sapiens, UniProt Q07869)
T5 sequence (Q07869 whole entry): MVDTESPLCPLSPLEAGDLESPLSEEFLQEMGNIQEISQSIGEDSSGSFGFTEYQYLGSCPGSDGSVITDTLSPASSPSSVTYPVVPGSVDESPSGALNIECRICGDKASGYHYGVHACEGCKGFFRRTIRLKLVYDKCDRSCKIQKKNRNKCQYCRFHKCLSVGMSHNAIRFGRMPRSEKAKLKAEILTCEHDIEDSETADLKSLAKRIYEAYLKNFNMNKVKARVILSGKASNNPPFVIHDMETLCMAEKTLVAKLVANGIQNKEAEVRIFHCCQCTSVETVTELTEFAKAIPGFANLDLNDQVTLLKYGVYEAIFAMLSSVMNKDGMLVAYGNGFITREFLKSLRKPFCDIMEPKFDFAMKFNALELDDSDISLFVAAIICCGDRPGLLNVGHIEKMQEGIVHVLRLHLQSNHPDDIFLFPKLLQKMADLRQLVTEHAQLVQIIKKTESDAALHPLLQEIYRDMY

[6] = target: T6, Peroxisome proliferator-activated receptor gamma (Mus musculus, UniProt P37238)
T6 sequence (P37238 whole entry): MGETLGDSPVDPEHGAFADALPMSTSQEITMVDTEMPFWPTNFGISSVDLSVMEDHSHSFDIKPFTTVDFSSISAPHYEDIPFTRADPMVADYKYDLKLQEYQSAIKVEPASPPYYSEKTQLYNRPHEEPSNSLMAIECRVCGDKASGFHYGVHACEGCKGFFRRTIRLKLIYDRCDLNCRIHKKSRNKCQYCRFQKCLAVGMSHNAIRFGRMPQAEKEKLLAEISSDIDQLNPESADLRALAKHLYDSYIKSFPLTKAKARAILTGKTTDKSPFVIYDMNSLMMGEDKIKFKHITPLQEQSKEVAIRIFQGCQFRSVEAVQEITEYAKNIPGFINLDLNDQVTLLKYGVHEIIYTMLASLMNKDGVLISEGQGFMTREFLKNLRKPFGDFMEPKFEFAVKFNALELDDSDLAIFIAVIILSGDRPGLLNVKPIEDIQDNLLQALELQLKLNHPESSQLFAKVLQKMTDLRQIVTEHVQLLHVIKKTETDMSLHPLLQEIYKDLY
Description: Agonist activity for murine PPAR gamma receptor in transcriptional activation assay

[7] = target: T5, Peroxisome proliferator-activated receptor alpha; assay: Agonist activity for Human PPAR alpha receptor in transcriptional activation assay;IA means inactive at 10 uM; type: functional
[8] = target: T2, Peroxisome proliferator-activated receptor delta; remark: listed apart in the source
Description: Agonist activity for Human PPAR delta receptor in transcriptional activation assay;IA means inactive at 10 uM

[9] = target: T3, Peroxisome proliferator-activated receptor delta
Description: Agonist activity for murine PPAR delta receptor in transcriptional activation assay;IA means inactive at 10 uM

[10] = target: T1, Peroxisome proliferator-activated receptor alpha; assay: Agonist activity for murine PPAR alpha receptor in transcriptional activation assay;IA means inactive at 10 uM; type: functional
[11] = target: T5, Peroxisome proliferator-activated receptor alpha; remark: listed apart in the source
[12] = target: T2, Peroxisome proliferator-activated receptor delta; remark: listed apart in the source
[13] = target: T3, Peroxisome proliferator-activated receptor delta; remark: listed apart in the source
[14] = target: T1, Peroxisome proliferator-activated receptor alpha; assay: Agonist activity for murine PPAR alpha receptor in transcriptional activation assay; IA means inactive at 10 uM; type: functional
[15] = target: T4, Peroxisome proliferator-activated receptor gamma; assay: Agonist activity for Human PPAR gamma receptor in transcriptional activation assay; type: functional
[16] = target: T2, Peroxisome proliferator-activated receptor delta; assay: Agonist activity for Human PPAR delta receptor in transcriptional activation assay at 100 uM; IA means inactive; type: functional
[17] = target: T3, Peroxisome proliferator-activated receptor delta; remark: listed apart in the source
Description: Agonist activity for murine PPAR delta receptor in transcriptional activation assay at 100 uM; IA means inactive

[18] = target: T3, Peroxisome proliferator-activated receptor delta; assay: Agonist activity for murine PPAR delta receptor in transcriptional activation assay; IA means inactive at 10 uM; type: functional
[19] = target: T5, Peroxisome proliferator-activated receptor alpha; assay: Agonist activity for Human PPAR alpha receptor in transcriptional activation assay; IA means inactive at 10 uM; type: functional
[20] = target: T2, Peroxisome proliferator-activated receptor delta; assay: Agonist activity for Human PPAR delta receptor in transcriptional activation assay; IA means inactive at 10 uM; type: functional

Q: For COc1ccc(CC2SC(=O)NC2=O)cc1C(=O)NCc1ccc(C(F)(F)F)cc1 (centres undefined), which EC50 [1] is on record?
A: 10000 nM

Q: And the EC50 [2]?
A: 9100 nM

Q: And the EC50 [3]?
A: 7200 nM

Q: CC(C)(Oc1ccc(CCCN(CCc2c(F)cccc2Cl)C(=O)Nc2cccc(Cl)c2Cl)cc1)C(=O)O was tested. Which EC50 [1] did it give?
A: 270 nM

Q: And the EC50 [4]?
A: 2500 nM

Q: What about the EC50 [5] of the same compound?
A: 170 nM

Q: What about the EC50 [6] of the same compound?
A: 1500 nM

Q: And the EC50 [3]?
A: 410 nM

Q: For CN(CCOc1ccc(C[C@H](Nc2ccccc2C(=O)c2ccccc2)C(=O)O)cc1)c1ccccn1, which EC50 [7] is on record?
A: Not Active

Q: And the EC50 [8]?
A: Not Active

Q: And the EC50 [9]?
A: Not Active

Q: And the EC50 [10]?
A: Not Active

Q: And the EC50 [6]?
A: 13 nM

Q: How did the EC50 [8] turn out when COC(=O)c1ccccc1N[C@@H](Cc1ccc(OCCc2nc(-c3ccccc3)oc2C)cc1)C(=O)O [GW7845] was run?
A: Not Active

Q: What about the EC50 [9] of the same compound?
A: Not Active

Q: And the EC50 [10]?
A: Not Active

Q: CCOC(Cc1ccc(OCCN(C)c2nc3ccccc3o2)cc1)C(=O)O (centres undefined) was tested. Which EC50 [1] did it give?
A: 930 nM

Q: And the EC50 [5]?
A: 740 nM

Q: With CCc1ccc(CCOc2ccc(CC3SC(=O)NC3=O)cc2)nc1 (centres undefined) [PIOGLITAZONE] as the compound, how does the EC50 [11] read?
A: Not Active

Q: And the EC50 [12]?
A: Not Active

Q: And the EC50 [13]?
A: Not Active

Q: What about the EC50 [14] of the same compound?
A: Not Active

Q: Which EC50 [4] does the source give for CCCc1c(OCCCOc2ccc(OCC(=O)O)cc2)ccc(C(C)=O)c1O here?
A: 5500 nM

Q: What about the EC50 [2] of the same compound?
A: 530 nM

Q: What about the EC50 [5] of the same compound?
A: 10000 nM

Q: What about the EC50 [10] of the same compound?
A: Not Active

Q: What about the EC50 [6] of the same compound?
A: 10000 nM

Q: What about the EC50 [3] of the same compound?
A: 3800 nM

Q: What does the source list for CCOC(=O)C(C)(C)Oc1ccc(Cl)cc1 [CLOFIBRATE]?
A: EC50 [1]: 50000 nM; EC50 [15]: 500000 nM; EC50 [5]: 55000 nM; EC50 [16]: Not Active; EC50 [17]: Not Active

Q: For Cc1oc(-c2ccccc2)nc1CCOc1ccc(CC2C(=O)NOC2=O)cc1 (centres undefined) [REGLITAZAR], which EC50 [1] is on record?
A: 4300 nM

Q: What about the EC50 [8] of the same compound?
A: Not Active

Q: And the EC50 [9]?
A: Not Active

Q: What about the EC50 [5] of the same compound?
A: 1900 nM

Q: What about the EC50 [6] of the same compound?
A: 89 nM

Q: What does the source list for CC(C)OC(=O)C(C)(C)Oc1ccc(C(=O)c2ccc(Cl)cc2)cc1 [FENOFIBRATE]?
A: EC50 [16]: Not Active; EC50 [17]: Not Active

Q: Cc1cccc(Nc2cc(Cl)nc(SCC(=O)O)n2)c1C [PIRINIXIC ACID] was tested. Which EC50 [6] did it give?
A: 32000 nM

Q: What does the source list for COc1ccc(CCc2c(-c3ccccc3)[nH]c3ccc(CC(=O)O)cc23)cc1?
A: EC50 [18]: Not Active; EC50 [19]: Not Active; EC50 [14]: Not Active; EC50 [6]: 140 nM; EC50 [20]: Not Active

Q: With Cc1oc(-c2ccccc2)nc1CCOc1ccc(C[C@H](Nc2ccccc2C(=O)c2ccccc2)C(=O)O)cc1 [FARGLITAZAR] as the compound, how does the EC50 [8] read?
A: Not Active

Q: And the EC50 [9]?
A: Not Active

Q: And the EC50 [10]?
A: Not Active

Q: Which EC50 [11] does the source give for CN(CCOc1ccc(CC2SC(=O)NC2=O)cc1)c1ccccn1 (centres undefined) [ROSIGLITAZONE] here?
A: Not Active

Q: What about the EC50 [14] of the same compound?
A: Not Active

Q: With Cc1c(C)c2c(c(C)c1O)CCC(C)(COc1ccc(CC3SC(=O)NC3=O)cc1)O2 (centres undefined) [TROGLITAZONE] as the compound, how does the EC50 [11] read?
A: Not Active

Q: What about the EC50 [12] of the same compound?
A: Not Active

Q: What about the EC50 [13] of the same compound?
A: Not Active

Q: And the EC50 [14]?
A: Not Active

Q: For CCCc1c(OCCCSc2ccc(CC(=O)O)cc2Cl)ccc2c(-c3ccccc3)coc12 [L-796449], which EC50 [1] is on record?
A: 7600 nM

Q: And the EC50 [5]?
A: 4.1 nM

Q: And the EC50 [6]?
A: 10 nM

Q: What about the EC50 [3] of the same compound?
A: 23 nM
